In US7737182B2, “Pharmaceuticals for xerosis” (Taisho Pharmaceutical Co., Ltd., priority 2001, dated 2010):

Key:
[1] = system: BALB/c male mice; assay: Mouse skin's barrier function, treatment test, TEWL (Test Example 5); type: in vivo; conditions: barrier destroyed with acetone/diethyl ether; 0.01% in ethanol, 100 μL, once a day for 2 days
Protocol: Six-week-old BALB/c male mice in groups of eight were shaven in a rostral dorsolateral area of 4 cm^2 (2 cm×2 cm) with electric clippers and the shaven area was covered for 60 seconds with an absorbent cotton (2 cm×2 cm) impregnated with a 1:1 liquid mixture of acetone and diethyl ether. This treatment for destroying the skin's barrier function was performed for 3 consecutive days on once-a-day basis. Starting on the day next to completion of the treatment for barrier destruction at day 3, a solvent (ethanol, 100 μL) or a drug dissolved in the solvent (compound No. 7, PGD2, PGF2α, or PGE1, all being at 0.01% in an amount of 100 μL) was applied to the barrier destroyed site for 2 days on once-a-day basis. On the day next to the second application of the solvent or drug, the transepidermal water loss (TEWL) at the same site was measured with Tewameter (TM210 of Courage & Khazawa, Germany) to evaluate the drug's action.

[2] = system: BALB/c male mice; assay: Mouse skin's barrier function, preventive test, TEWL (Test Example 6); type: in vivo; conditions: cohabitation with dermatitic NC/Nga mice; 0.01% in ethanol, 100 μL, once a day for 7 days
Protocol: Six-week-old BALB/c male mice in groups of six were shaven in a rostral dorsolateral area of 4 cm^2 (2 cm×2 cm) with electric clippers and kept in the same cage as NC/Nga mice that had developed dermatitis. From the day next to the start of cohabitation, a solvent (ethanol, 100 μL) or a drug dissolved in the solvent (compound No. 7, PGD2, PGF2α, or PGE1, all being at 0.01% in an amount of 100 μL) was applied to the shaven site for 7 days on once-a-day basis.
On the day next to the seventh application of the solvent or drug, the transepidermal water loss (TEWL) at the same site was measured with Tewameter (TM210 of Courage & Khazawa, Germany) to evaluate the drug's action, with the solvent-applied group being used as the control group.

[3] = system: NC/Nga mice manifesting atopic dermatitis; assay: Spontaneous itch-evoked scratching behavior of NC mice (Test Example 1); type: in vivo; conditions: for Inhibition rate (%) (percent itch suppression): 0.2 ml/mouse on dorsal skin, 24-hr scratching counts before vs after; for Efficacy (significance, paired t-test): scratching counts before vs after application
Protocol: About 20-week old NC/Nga mice each weighing about 30 g and manifesting atopic dermatitis were purchased from SLC and subjected to the following experiment. A magnet was buried in both hind paws of each mouse and by detecting its magnetism, the movement of the paws was measured with an itch measuring system (product of Neuroscience; when the mouse makes an action, the magnets move accordingly and a current flows through the coil; the moving magnets cause a change in the current, which is detected, measured and analyzed). Among the scratching actions, those lasting 1.5 seconds or longer were considered itch-evoked and their number was counted continuously. […] The subsequent 24-hr itch-evoked scratching behavior was measured and the number of itch-evoked scratchings after drug administration was compared with the initial count. The experimental data was processed to calculate the percent itch suppression on the basis of the total 24-hr itch-evoked scratching counts before and after drug application. For significance testing, the itch-evoked scratching counts that were obtained before and after drug application from individual animals in each group treated with a specific concentration of drug were processed by a paired t-test. Percent itch suppression (%)=(itch-evoked scratching count before drug application−itch-evoked scratching count after drug application)×100/itch-evoked scratching count before drug application (Results)

[4] = system: NC mice induced to manifest dermatitis; assay: Dermatitis score in dermatitis manifesting NC mouse models (Test Example 2); type: in vivo; conditions: 0.1% in 100% ethanol, 200 μl on dorsal back, seven times a week for 4 weeks
Protocol: By suitably modifying a method known to the skilled artisan (Jpn. J. Pharmacol. 76, 175-183 (1998) Jun Hiroi, et al. Effects of Tacrolimus Hydrate (FK-506) Ointment on Spontaneous Dermatitis in NC/Nga Mice), the following test was conducted in order to confirm the antipruritic effect of compounds of the invention.
Animals: Four-week old SPF NC mice (male) were purchased from Japan SLC; right after their arrival, the SPF NC mice were kept together with dermatitis manifesting male NC mice (older than 20 weeks) for 2 weeks under the following conditions so as to induce itch-evoked scratching behavior. […]
Drug administration: To the dorsal backs of the 20-wk NC mice that were induced to manifest dermatitis as the result of cohabitation with the spontaneous dermatitis manifesting NC mice, 100% ethanol, compound No. 7 (0.01%) dissolved in 100% ethanol or tacrolimus (0.1%) dissolved in 100% ethanol was applied from an Eppendorf pipette in 200-μl doses seven times a week for a period of 4 weeks. […] Dermatitis score: Dermatitic symptoms were observed and measured once a week. […]

[5] = target: T1, prostaglandin D receptor (Homo sapiens, UniProt Q13258); assay: Antagonism by BW A868C of the suppression of ADP-induced human platelet aggregation; type: cell-based; conditions: human PRP, ADP 3 μmol/L
T1 construct: separate the supernatant (PRP, or platelet-rich plasma); endogenous in cells; host or cells: human platelets (platelet-rich plasma from healthy male donors)
T1 sequence (Q13258 1-359): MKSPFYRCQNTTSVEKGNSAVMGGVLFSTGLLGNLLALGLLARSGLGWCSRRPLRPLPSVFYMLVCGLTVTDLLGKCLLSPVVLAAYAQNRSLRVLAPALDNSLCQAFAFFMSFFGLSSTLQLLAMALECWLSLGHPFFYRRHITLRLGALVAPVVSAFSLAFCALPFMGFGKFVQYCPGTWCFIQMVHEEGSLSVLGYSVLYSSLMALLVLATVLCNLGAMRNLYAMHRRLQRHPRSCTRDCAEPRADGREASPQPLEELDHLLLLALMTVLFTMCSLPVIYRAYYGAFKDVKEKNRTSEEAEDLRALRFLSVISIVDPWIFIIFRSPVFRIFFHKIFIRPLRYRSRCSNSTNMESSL
Protocol: The prostaglandin D receptor selective antagonist used in the test was ((+/−)-3-benzyl-5-(6-carboxyhexyl)-1-(2-cyclohexyl-2-hydroxyethylamino)-hydantoin) (hereunder designated BW A868C) (Sigma-Aldrich Japan K.K.)
BW A868C was diluted with ethanol to final concentrations of 0.03 μmol/L, 0.1 μmol/L, 0.3 μmol/L, 1 μmol/L, 3 μmol/L and 10 μmol/L.
Compound No. 7 and PGD2 were diluted with ethanol to 287 nmol/L and 300 nmol/L, respectively, for subsequent use.
Blood was taken from the cubital veins of human healthy males and sampled into a tube containing 3.13% sodium citrate. The blood sample was centrifuged at 1,000 rpm for 10 minutes at 20° C. to separate the supernatant (PRP, or platelet-rich plasma) and the residue was further centrifuged at 3,000 rpm for 10 minutes at 20° C. to separate the supernatant (PPP, or platelet-poor plasma). The platelet count of PRP was appropriately diluted with PPP to 30×10^4 platelets/μL for subsequent use.
Platelet aggregation was measured with a platelet aggregation measuring instrument (PAM-8C; MC MEDICAL Co., LTD.) by the Born method (Nature, vol. 194, p. 927, 1962). A portion (273 μL) of PRP (for the BW A868C groups, 1 μL of BW A868C was added at varying concentrations) was preincubated at 37° C. for 3 minutes with stirring at 1,000 rpm. After the preincubation, 1 μL of ethanol or a test substance (compound No. 7: final concentration at 95.7 nmol/L; PGD2: final concentration at 1000 nmol/L) was added and the mixture was incubated at 37° C. for 3 minutes with stirring at 1000 rpm. After the incubation, 25 μL of ADP (final concentration at 3 μmol/L) was added to induce platelet aggregation and a maximum percent aggregation for 5 minutes was measured.

[6] = concentration 0.00001% in 100% ethanol

Question: How did the “transepidermal water loss (TEWL) compared to the solvent-applied control group” value [1] turn out when `CCCCC[C@H](O)/C=C/[C@H]1[C@H](O)CC(=O)[C@@H]1CCCCCCC(=O)O` [PGE1] was run?
Answer: no significant difference from the control group

Question: And the “transepidermal water loss (TEWL) compared to the control group” value [2]?
Answer: significant decrease in TEWL

Question: What does the source list for `O=C(O)CCCCSC[C@@H]1[C@@H](C#C[C@@H](O)C2CCCCC2)[C@H](O)C[C@H]1Cl` [Compound No. 32]?
Answer: Inhibition rate (%) (percent itch suppression) [3, 6]: 41.76%; Efficacy (significance, paired t-test) ([3]; concentration 0.00001%): ** (**: P < 0.01)

Question: Which results are given for `COC(=O)CSCCCC[C@@H]1[C@@H](C#C[C@@H](O)C2CCCCC2)[C@H](O)C[C@H]1Cl` [Compound No. 6]?
Answer: Inhibition rate (%) (percent itch suppression) ([3]; concentration 0.0001% in 100% ethanol): 32.26%; Efficacy (significance, paired t-test) ([3]; concentration 0.0001%): * (*: P < 0.05)

Question: For `O=C(O)CSCCSC[C@@H]1[C@@H](C#C[C@@H](O)C2CCCCC2)[C@H](O)C[C@H]1Cl` [Compound No. 25], which “Inhibition rate (%) (percent itch suppression)” value [3, 6] is on record?
Answer: 21.51%

Question: What about the “Efficacy (significance, paired t-test)” value ([3]; concentration 0.00001%) of the same molecule?
Answer: * (*: P < 0.05)

Question: Which results are given for `CCCCC[C@H](O)/C=C/[C@@H]1[C@@H](C/C=C\CCCC(=O)O)[C@@H](O)C[C@H]1O` [PGF2α]?
Answer: transepidermal water loss (TEWL) compared to the solvent-applied control group [1]: no significant difference from the control group; transepidermal water loss (TEWL) compared to the control group [2]: no significant difference from the control group

Question: How did the “dermatitis score suppressing action compared to the vehicle group” value [4] turn out when `C=CC[C@@H]1/C=C(\C)C[C@H](C)C[C@H](OC)[C@H]2O[C@@](O)(C(=O)C(=O)N3CCCC[C@H]3C(=O)O[C@H](/C(C)=C/[C@@H]3CC[C@@H](O)[C@H](OC)C3)[C@H](C)[C@@H](O)CC1=O)[C@H](C)C[C@@H]2OC` [tacrolimus, reference compound] was run?
Answer: significant dermatitis score suppressing action

Question: How did the “concentration of BW A868C with significant antagonism of the platelet aggregation suppressing action of PGD2” value ([5]; PGD2 at 1000 nmol/L) turn out when `O=C(O)CCCCCCC1C(=O)N(Cc2ccccc2)C(=O)N1NCC(O)C1CCCCC1` (racemic) [BW A868C, ((+/−)-3-benzyl-5-(6-carboxyhexyl)-1-(2-cyclohexyl-2-hydroxyethylamino)-hydantoin)] was run?
Answer: ≥ 0.3 µmol/L

Question: And the “concentration of BW A868C with significant antagonism of the platelet aggregation suppressing action of compound No. 7” value ([5]; compound No. 7 at 95.7 nmol/L)?
Answer: ≥ 0.1 µmol/L

Question: `O=C(O)C#CCCCC[C@@H]1[C@@H](C#C[C@@H](O)C2CCCCC2)[C@H](O)C[C@H]1Cl` [Compound No. 15] was tested. Which “Inhibition rate (%) (percent itch suppression)” value ([3]; concentration 0.000001% in 100% ethanol) did it give?
Answer: 34.61%

Question: What about the “Efficacy (significance, paired t-test)” value ([3]; concentration 0.000001%) of the same molecule?
Answer: * (*: P < 0.05)
